We go through 28 compounds from patent US8975398B2, “NAMPT inhibitors” (AbbVie Inc., priority 2012, dated 2015).

The target of one assay is NAMPT (Homo sapiens, UniProt P43490). In words: Time-Resolved Fluorescence Resonance Energy Transfer (TR-FRET) Binding Assay of NAMPT with PRPP. To be noted: 2 nM NAMPT, 2 nM probe, 200 uM PRPP and 2.5 mM ATP, equilibrated 16 hours. A digest of the protocol:
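Binding measured by TR-FRET after a 16-hour equilibration meant to permit enzymatic compound modification. Substrates present at 200 uM PRPP and 2.5 mM ATP, with 2 nM enzyme, 2 nM probe, 1 nM Tb-anti-His antibody and 2% DMSO final.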
For orientation: TR-FRET usually uses a lanthanide donor and a delayed reading to cut background.

Assay [1] addresses NAMPT (human, recombinant, C-terminally His-tagged) (Homo sapiens, UniProt P43490). Put plainly: Time-Resolved Fluorescence Resonance Energy Transfer (TR-FRET) Binding Assay of NAMPT. To be noted: 6.8 nM NAMPT, 200 nM probe, equilibrated 3 hours, absence of substrates. The essentials: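 Probe displacement measured by TR-FRET (Ex 337 nm; 520/495 nm ratio) after 3 h room-temperature equilibration of compound with 6.8 nM His-tagged human NAMPT, 1 nM Tb-anti-His antibody and 200 nM Oregon Green 488 nicotinamide-site probe, pH 7.5 HEPES buffer, 2% DMSO. Control-normalized data fit four-parameter logistic for IC50.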

Sequence of NAMPT (P43490 whole entry): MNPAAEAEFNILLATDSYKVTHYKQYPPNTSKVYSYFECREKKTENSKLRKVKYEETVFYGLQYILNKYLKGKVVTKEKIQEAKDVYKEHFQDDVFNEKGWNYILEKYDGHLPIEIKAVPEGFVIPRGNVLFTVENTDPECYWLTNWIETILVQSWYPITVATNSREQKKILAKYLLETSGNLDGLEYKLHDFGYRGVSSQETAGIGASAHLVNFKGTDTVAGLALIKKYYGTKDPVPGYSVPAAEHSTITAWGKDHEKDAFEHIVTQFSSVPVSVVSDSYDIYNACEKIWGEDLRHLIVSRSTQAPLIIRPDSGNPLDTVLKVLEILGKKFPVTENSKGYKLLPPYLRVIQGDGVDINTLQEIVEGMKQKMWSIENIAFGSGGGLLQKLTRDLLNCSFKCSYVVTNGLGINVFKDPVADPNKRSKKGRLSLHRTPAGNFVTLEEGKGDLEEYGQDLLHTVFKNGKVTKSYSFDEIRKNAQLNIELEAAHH
Sequence of NAMPT (human, recombinant, C-terminally His-tagged) (P43490 whole entry): as above

By IC50 is commonly meant the concentration that gives 50% inhibition. With `Cc1ncccc1N1CC(C(=O)Nc2ccc(C3CCN(C(=O)CN4CCOCC4)CC3)cc2)C1` [Example 164, 1-(2-methylpyridin-3-yl)-N-{4-[1-(morpholin-4-ylacetyl)piperidin-4-yl]phenyl}azetidine-3-carboxamide], the values for the IC50 (on NAMPT; in assay [1]) were 0.124 µM and 0.987 µM, respectively.
As to `Cc1ncccc1N1CC(C(=O)Nc2ccc(C3CCN(C(=O)c4ccoc4)CC3)cc2)C1` [Example 165, N-{4-[1-(furan-3-ylcarbonyl)piperidin-4-yl]phenyl}-1-(2-methylpyridin-3-yl)azetidine-3-carboxamide], the IC50 at NAMPT came out at 0.0683 µM; in assay [1], 0.0352 µM.
For `Cc1ncccc1N1CC(C(=O)Nc2ccc(C3CCN(C(=O)CN4CCCC4)CC3)cc2)C1` [Example 166, 1-(2-methylpyridin-3-yl)-N-{4-[1-(pyrrolidin-1-ylacetyl)piperidin-4-yl]phenyl}azetidine-3-carboxamide], the IC50 worked out at 0.206 µM on NAMPT and 2.27 µM in assay [1].
The corresponding values for `Cc1ncccc1N1CC(C(=O)Nc2ccc(C3CCN(C(=O)[C@H]4CCC(=O)N4)CC3)cc2)C1` [Example 167, 1-(2-methylpyridin-3-yl)-N-{4-[1-(5-oxo-D-prolyl)piperidin-4-yl]phenyl}azetidine-3-carboxamide] are 0.204 µM and 3.74 µM.
Regarding `Cc1ncccc1N1CC(C(=O)Nc2ccc(C3CCN(C(=O)CCN(C)C)CC3)cc2)C1` [Example 168, N-{4-[1-(N,N-dimethyl-beta-alanyl)piperidin-4-yl]phenyl}-1-(2-methylpyridin-3-yl)azetidine-3-carboxamide], the IC50 on NAMPT is 0.171 µM; in assay [1], 2.94 µM.
Turning to `Cc1ncccc1N1CC(C(=O)Nc2ccc(C3CCN(C(=O)c4ccsc4)CC3)cc2)C1` [Example 169, 1-(2-methylpyridin-3-yl)-N-{4-[1-(thiophen-3-ylcarbonyl)piperidin-4-yl]phenyl}azetidine-3-carboxamide], the half-maximal inhibitory concentration (IC50) on NAMPT is 0.0679 µM; in assay [1] it was 0.0337 µM.
`Cc1ncccc1N1CC(C(=O)Nc2ccc(C3CCN(C(=O)C4(C)CC4)CC3)cc2)C1` [Example 170, N-(4-{1-[(1-methylcyclopropyl)carbonyl]piperidin-4-yl}phenyl)-1-(2-methylpyridin-3-yl)azetidine-3-carboxamide]: the concentration for half-maximal inhibition (IC50) was found to be 0.0898 µM on NAMPT and 0.0915 µM in assay [1].
Take `Cc1ccsc1C(=O)N1CCC(c2ccc(NC(=O)C3CN(c4cccnc4C)C3)cc2)CC1` [Example 171, 1-(2-methylpyridin-3-yl)-N-(4-{1-[(3-methylthiophen-2-yl)carbonyl]piperidin-4-yl}phenyl)azetidine-3-carboxamide]: the half-maximal inhibitory concentration (IC50) was 0.0379 µM at NAMPT and 0.0197 µM in assay [1].
The corresponding values for `Cc1ncccc1N1CC(C(=O)Nc2ccc(C3CCN(C(=O)CCC(F)(F)F)CC3)cc2)C1` [Example 172, 1-(2-methylpyridin-3-yl)-N-{4-[1-(4,4,4-trifluorobutanoyl)piperidin-4-yl]phenyl}azetidine-3-carboxamide] are 0.17 µM and 0.286 µM.
The corresponding values for `Cc1ncccc1N1CC(C(=O)Nc2ccc(C3CCN(C(=O)CN4CCN(C)CC4)CC3)cc2)C1` [Example 173, N-(4-{1-[(4-methylpiperazin-1-yl)acetyl]piperidin-4-yl}phenyl)-1-(2-methylpyridin-3-yl)azetidine-3-carboxamide] are 0.154 µM and 0.524 µM.
In the case of `Cc1ncccc1N1CC(C(=O)Nc2ccc(C3CCN(C(=O)[C@@H]4CCC(=O)N4)CC3)cc2)C1` [Example 174, 1-(2-methylpyridin-3-yl)-N-{4-[1-(5-oxo-L-prolyl)piperidin-4-yl]phenyl}azetidine-3-carboxamide], the results for the half-maximal inhibitory concentration (IC50) (on NAMPT; in assay [1]) were 0.158 µM and 2.1 µM, respectively.
With `CCOCCC(=O)N1CCC(c2ccc(NC(=O)C3CN(c4cccnc4C)C3)cc2)CC1` [Example 175, N-{4-[1-(3-ethoxypropanoyl)piperidin-4-yl]phenyl}-1-(2-methylpyridin-3-yl)azetidine-3-carboxamide], the IC50 at NAMPT is 0.161 µM; in assay [1] it was 0.664 µM.
In the same order, the values of `Cc1ncccc1N1CC(C(=O)Nc2ccc(C3CCN(C(=O)CCC(C)C)CC3)cc2)C1` [Example 176, N-{4-[1-(4-methylpentanoyl)piperidin-4-yl]phenyl}-1-(2-methylpyridin-3-yl)azetidine-3-carboxamide] are 0.111 µM and 0.165 µM.
In the same order, the values of `Cc1ncccc1N1CC(C(=O)Nc2ccc(C3CCN(C(=O)C4(C)CCCCC4)CC3)cc2)C1` [Example 177, N-(4-{1-[(1-methylcyclohexyl)carbonyl]piperidin-4-yl}phenyl)-1-(2-methylpyridin-3-yl)azetidine-3-carboxamide] are 0.0913 µM and 0.0604 µM.
In the same order, the values of `CC(=O)N1CCC(c2ccc(NC(=O)C3CN(c4cccnc4C)C3)cc2)CC1` [Example 178, N-[4-(1-acetylpiperidin-4-yl)phenyl]-1-(2-methylpyridin-3-yl)azetidine-3-carboxamide] are 0.0652 µM and 0.247 µM.
As for `Cc1ncccc1N1CC(C(=O)Nc2ccc(C3CCN(C(=O)CC4CCCCC4)CC3)cc2)C1` [Example 179, N-{4-[1-(cyclohexylacetyl)piperidin-4-yl]phenyl}-1-(2-methylpyridin-3-yl)azetidine-3-carboxamide], the IC50 at NAMPT came to 0.0707 µM; in assay [1], 0.0992 µM.
With `CC(=O)N[C@@H](CC(C)C)C(=O)N1CCC(c2ccc(NC(=O)C3CN(c4cccnc4C)C3)cc2)CC1` [Example 180, N-{4-[1-(N-acetyl-L-leucyl)piperidin-4-yl]phenyl}-1-(2-methylpyridin-3-yl)azetidine-3-carboxamide], the half-inhibitory concentration (IC50) is 0.123 µM on NAMPT and 0.304 µM in assay [1].
The corresponding values for `CCC(=O)N1CCC(c2ccc(NC(=O)C3CN(c4cccnc4C)C3)cc2)CC1` [Example 181, 1-(2-methylpyridin-3-yl)-N-[4-(1-propanoylpiperidin-4-yl)phenyl]azetidine-3-carboxamide] are 0.128 µM and 0.284 µM.
For the compound `Cc1ncccc1N1CC(C(=O)Nc2ccc(C3CCN(C(=O)CC(F)(F)F)CC3)cc2)C1` [Example 182, 1-(2-methylpyridin-3-yl)-N-{4-[1-(3,3,3-trifluoropropanoyl)piperidin-4-yl]phenyl}azetidine-3-carboxamide], the half-inhibitory concentration (IC50) was found to be 0.104 µM on NAMPT and 0.14 µM in assay [1].
The corresponding values for `COCCOCC(=O)N1CCC(c2ccc(NC(=O)C3CN(c4cccnc4C)C3)cc2)CC1` [Example 183, N-(4-{1-[(2-methoxyethoxy)acetyl]piperidin-4-yl}phenyl)-1-(2-methylpyridin-3-yl)azetidine-3-carboxamide] are 0.185 µM and 1.04 µM.
The corresponding values for `Cc1ncccc1N1CC(C(=O)Nc2ccc(C3CCN(C(=O)CCN4CCOCC4)CC3)cc2)C1` [Example 184, 1-(2-methylpyridin-3-yl)-N-(4-{1-[3-(morpholin-4-yl)propanoyl]piperidin-4-yl}phenyl)azetidine-3-carboxamide] are 0.0789 µM and 0.625 µM.
Consider `Cc1ncccc1N1CC(C(=O)Nc2ccc(C3CCN(C(=O)C(C)(C)C)CC3)cc2)C1` [Example 185, N-{4-[1-(2,2-dimethylpropanoyl)piperidin-4-yl]phenyl}-1-(2-methylpyridin-3-yl)azetidine-3-carboxamide], for which the figures for the IC50 (at NAMPT; in assay [1]) were 0.0441 µM and 0.0813 µM, respectively.
Regarding `Cc1ccc(C(=O)N2CCC(c3ccc(NC(=O)C4CN(c5cccnc5C)C4)cc3)CC2)s1` [Example 186, 1-(2-methylpyridin-3-yl)-N-(4-{1-[(5-methylthiophen-2-yl)carbonyl]piperidin-4-yl}phenyl)azetidine-3-carboxamide], the IC50 at NAMPT was 0.118 µM; in assay [1], 0.0989 µM.
The corresponding values for `Cc1ncccc1N1CC(C(=O)Nc2ccc(C3CCN(C(=O)c4cccs4)CC3)cc2)C1` [Example 187, 1-(2-methylpyridin-3-yl)-N-{4-[1-(thiophen-2-ylcarbonyl)piperidin-4-yl]phenyl}azetidine-3-carboxamide] are 0.0273 µM and 0.0102 µM.
For `Cc1ncccc1N1CC(C(=O)Nc2ccc(C3CCN(C(=O)c4cccn4C)CC3)cc2)C1` [Example 188, 1-(2-methylpyridin-3-yl)-N-(4-{1-[(1-methyl-1H-pyrrol-2-yl)carbonyl]piperidin-4-yl}phenyl)azetidine-3-carboxamide], the figures for the concentration for half-maximal inhibition (IC50) (at NAMPT; in assay [1]) were 0.0499 µM and 0.0205 µM, respectively.
`Cc1ncccc1N1CC(C(=O)Nc2ccc(C3CCN(C(=O)c4ccco4)CC3)cc2)C1` [Example 189, N-{4-[1-(furan-2-ylcarbonyl)piperidin-4-yl]phenyl}-1-(2-methylpyridin-3-yl)azetidine-3-carboxamide]: the half-maximal inhibitory concentration (IC50) at NAMPT was 0.0269 µM; in assay [1], 0.00691 µM.
For `Cc1ncccc1N1CC(C(=O)Nc2ccc(C3CCN(C(=O)CCN4CCCCC4)CC3)cc2)C1` [Example 190, 1-(2-methylpyridin-3-yl)-N-(4-{1-[3-(piperidin-1-yl)propanoyl]piperidin-4-yl}phenyl)azetidine-3-carboxamide], the IC50 at NAMPT came out at 0.103 µM; in assay [1], 1.91 µM.
The corresponding values for `CCOCC(=O)N1CCC(c2ccc(NC(=O)C3CN(c4cccnc4C)C3)cc2)CC1` [Example 191, N-{4-[1-(ethoxyacetyl)piperidin-4-yl]phenyl}-1-(2-methylpyridin-3-yl)azetidine-3-carboxamide] are 0.184 µM and 0.743 µM.
